Laboratory results reported in patent US12338221B2, “Process for preparation of sulfentrazone with tank-mix compatibility” (UPL LTD, priority 2021, dated 2025).

Assay: Tank mix compatibility test with other pesticide active compound
Type: physicochemical
Settings: FIG. 2 and FIG. 3
Experimental: Samples prepared according to Example 6 and Example 7 were tested for compatibility with clomazone EC formulation (UPSTAGE®). The tank mix compatibility was checked as per the dosages mentioned below: [table] Method: Total 250 ml of spray dilution solution was prepared using above mentioned composition wherein 7 ml of each sample 1 and sample 2 were mixed with 10 ml of UPSTAGE® and mixture was diluted with water.

Row | Structure (SMILES) | Physical incompatibilities when mixed with a clomazone EC formulation
1 | Cc1nn(-c2cc(NS(C)(=O)=O)c(Cl)cc2Cl)c(=O)n1C(F)F [conventionally prepared sulfentrazone, N[2,4-dichloro-5-[4-(difluoromethyl)-4,5-dihydro-3-methyl-5-oxo-1H-1,2,4-triazol-1-yl]phenyl]methanesulfonamide] | moderate to severe physical incompatibilities
2 | Cc1nn(-c2cc(NS(C)(=O)=O)c(Cl)cc2Cl)c(=O)n1C(F)F [sulfentrazone prepared in accordance with the present disclo] [N[2,4-dichloro-5-[4-(difluoromethyl)-4,5-dihydro-3-methyl-5-oxo-1H-1,2,4-triazol-1-yl]phenyl]methanesulfonamide] | did not result in any physical incompatibilities
